pIC50: −log10 of the molar value. The source made the active and inactive calls. No cut-off for these calls is given here.
What was measured:
[1] = molecular target: Calcium/calmodulin-dependent protein kinase kinase 2 (Homo sapiens) (UniProt Q96RR4); experiment: Inhibition of human CaMKK2 assessed as residual activity at 10 uM by kinome selectivity profiling analysis relative to control
[2] = molecular target: Myosin-IIIb (Homo sapiens) (UniProt Q8WXR4); experiment: Inhibition of human MYO3B assessed as residual activity at 10 uM by kinome selectivity profiling analysis relative to control
Chain of Myosin-IIIb (Homo sapiens) (Q8WXR4 whole entry): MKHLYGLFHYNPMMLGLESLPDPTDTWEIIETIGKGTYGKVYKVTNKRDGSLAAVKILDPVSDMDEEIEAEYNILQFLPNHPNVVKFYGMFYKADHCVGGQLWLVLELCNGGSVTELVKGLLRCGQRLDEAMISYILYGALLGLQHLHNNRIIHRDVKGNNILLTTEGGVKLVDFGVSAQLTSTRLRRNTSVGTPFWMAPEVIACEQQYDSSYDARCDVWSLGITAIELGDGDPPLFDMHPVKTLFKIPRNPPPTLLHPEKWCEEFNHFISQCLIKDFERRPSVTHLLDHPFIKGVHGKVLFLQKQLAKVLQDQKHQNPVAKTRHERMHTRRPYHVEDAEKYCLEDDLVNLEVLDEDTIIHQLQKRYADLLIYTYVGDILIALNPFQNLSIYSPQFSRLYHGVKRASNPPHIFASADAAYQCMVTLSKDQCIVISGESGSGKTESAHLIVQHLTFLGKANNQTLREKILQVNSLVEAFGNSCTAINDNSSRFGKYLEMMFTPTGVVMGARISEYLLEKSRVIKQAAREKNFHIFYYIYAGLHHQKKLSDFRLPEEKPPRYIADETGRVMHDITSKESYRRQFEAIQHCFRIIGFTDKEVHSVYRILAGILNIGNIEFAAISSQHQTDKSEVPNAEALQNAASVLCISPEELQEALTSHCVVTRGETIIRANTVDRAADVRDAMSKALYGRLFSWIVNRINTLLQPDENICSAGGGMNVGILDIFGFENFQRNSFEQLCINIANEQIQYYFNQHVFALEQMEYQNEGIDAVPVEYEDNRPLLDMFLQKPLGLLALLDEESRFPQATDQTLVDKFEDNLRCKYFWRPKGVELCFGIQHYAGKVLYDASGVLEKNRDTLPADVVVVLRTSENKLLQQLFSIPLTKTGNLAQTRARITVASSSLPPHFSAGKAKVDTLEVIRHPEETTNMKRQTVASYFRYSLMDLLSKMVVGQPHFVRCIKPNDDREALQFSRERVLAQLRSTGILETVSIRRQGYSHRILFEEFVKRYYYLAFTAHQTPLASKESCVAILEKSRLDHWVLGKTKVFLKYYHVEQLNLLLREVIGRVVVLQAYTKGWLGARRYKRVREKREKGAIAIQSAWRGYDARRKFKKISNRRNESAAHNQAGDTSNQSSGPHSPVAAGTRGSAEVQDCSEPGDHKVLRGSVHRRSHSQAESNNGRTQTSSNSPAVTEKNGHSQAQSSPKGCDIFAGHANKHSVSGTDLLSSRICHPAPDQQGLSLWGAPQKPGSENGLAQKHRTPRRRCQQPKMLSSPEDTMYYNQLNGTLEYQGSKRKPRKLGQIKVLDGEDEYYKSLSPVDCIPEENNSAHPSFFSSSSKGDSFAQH

[3] = molecular target: T1, Serine/threonine-protein kinase PLK3 (Homo sapiens, UniProt Q9H4B4); experiment: Inhibition of human PLK3 using ATF2 as substrate incubated for 40 mins in presence of [gamma-33P]ATP/Mg acetate by scintillation counting analysis
[4] = molecular target: Eukaryotic translation initiation factor 2-alpha kinase 3 (Homo sapiens) (UniProt Q9NZJ5); experiment: Inhibition of human PEK assessed as residual activity at 10 uM by kinome selectivity profiling analysis relative to control
Chain of Eukaryotic translation initiation factor 2-alpha kinase 3 (Homo sapiens) (Q9NZJ5 whole entry): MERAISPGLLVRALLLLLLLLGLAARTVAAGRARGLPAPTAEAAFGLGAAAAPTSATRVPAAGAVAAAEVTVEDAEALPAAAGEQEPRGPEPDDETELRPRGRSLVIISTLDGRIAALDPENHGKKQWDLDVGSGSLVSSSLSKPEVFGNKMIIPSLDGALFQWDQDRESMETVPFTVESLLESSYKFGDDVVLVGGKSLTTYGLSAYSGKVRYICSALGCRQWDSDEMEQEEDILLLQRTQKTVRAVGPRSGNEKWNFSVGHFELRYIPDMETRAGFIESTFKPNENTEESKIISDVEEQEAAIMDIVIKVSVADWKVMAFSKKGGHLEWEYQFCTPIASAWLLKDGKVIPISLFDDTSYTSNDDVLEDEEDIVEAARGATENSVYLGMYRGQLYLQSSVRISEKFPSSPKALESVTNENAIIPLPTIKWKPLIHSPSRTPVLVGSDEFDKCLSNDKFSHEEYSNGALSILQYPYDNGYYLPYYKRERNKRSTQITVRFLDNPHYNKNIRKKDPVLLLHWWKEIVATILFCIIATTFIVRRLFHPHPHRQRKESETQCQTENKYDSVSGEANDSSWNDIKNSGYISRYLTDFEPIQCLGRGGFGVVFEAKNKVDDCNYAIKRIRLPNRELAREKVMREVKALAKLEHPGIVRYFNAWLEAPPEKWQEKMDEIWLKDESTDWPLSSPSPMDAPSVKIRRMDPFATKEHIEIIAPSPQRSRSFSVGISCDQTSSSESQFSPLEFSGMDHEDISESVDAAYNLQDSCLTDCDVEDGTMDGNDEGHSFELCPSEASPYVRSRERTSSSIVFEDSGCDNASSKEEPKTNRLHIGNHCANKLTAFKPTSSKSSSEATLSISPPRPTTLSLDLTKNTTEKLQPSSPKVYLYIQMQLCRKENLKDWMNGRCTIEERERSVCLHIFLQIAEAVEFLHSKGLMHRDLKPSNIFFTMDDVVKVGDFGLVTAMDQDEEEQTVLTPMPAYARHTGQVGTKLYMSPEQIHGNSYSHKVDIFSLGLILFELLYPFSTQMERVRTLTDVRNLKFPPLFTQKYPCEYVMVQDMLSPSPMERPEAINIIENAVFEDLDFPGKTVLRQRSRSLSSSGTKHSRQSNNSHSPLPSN

[5] = molecular target: T1, Serine/threonine-protein kinase PLK3; experiment: Inhibition of human PLK3 assessed as residual activity at 10 uM by kinome selectivity profiling analysis relative to control
[6] = Selectivity ratio of IC50 for inhibition of human PLK2 using ATF2 as substrate to IC50 for inhibition of human PLK1 using ATF2 as substrate
[7] = Acute hematopoietic toxicity in mouse assessed as effect on red blood cells at 500 mg/kg, IG qd treated for 7 days; assay type: organism-based; conditions: in vivo, po, 168 h, time 7 day
Cytochrome P450 2C8 = Cytochrome P450 2C8 (Homo sapiens, UniProt P10632); experiment: Inhibition of CYP2C8 in human liver microsomes using paclitaxel as substrate preincubated with compound followed by substrate addition measured after 10 mins in presence of NADPH by LC-MS/MS analysis; assay type: ADME, Microsome
Chain of Cytochrome P450 2C8 (P10632 whole entry): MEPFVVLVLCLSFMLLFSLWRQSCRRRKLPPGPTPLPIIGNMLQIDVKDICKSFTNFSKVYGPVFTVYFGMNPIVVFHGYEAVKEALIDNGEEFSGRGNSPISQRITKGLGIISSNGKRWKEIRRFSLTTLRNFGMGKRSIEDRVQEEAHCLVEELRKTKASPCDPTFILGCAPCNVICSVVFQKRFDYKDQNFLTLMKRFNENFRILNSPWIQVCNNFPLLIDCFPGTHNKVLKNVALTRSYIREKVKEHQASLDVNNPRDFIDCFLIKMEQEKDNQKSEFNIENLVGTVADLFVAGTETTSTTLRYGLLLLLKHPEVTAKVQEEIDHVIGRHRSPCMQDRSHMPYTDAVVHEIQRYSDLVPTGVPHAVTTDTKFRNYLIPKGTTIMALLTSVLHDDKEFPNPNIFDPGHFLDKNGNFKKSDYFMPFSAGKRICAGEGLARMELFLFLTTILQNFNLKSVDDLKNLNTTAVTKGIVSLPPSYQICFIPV

[8] = molecular target: Epidermal growth factor receptor (Homo sapiens) (UniProt P00533); experiment: Inhibition of human EGFR assessed as residual activity at 10 uM by kinome selectivity profiling analysis relative to control
Homo sapiens = species: Homo sapiens; experiment: Inhibition of human ABL assessed as residual activity at 10 uM by kinome selectivity profiling analysis relative to control
[9] = Half life in C57BL/6 mouse at 10 mg/kg, po measured for 0.5 to 12 htr by LC-MS/MS analysis; assay type: ADME, organism-based; conditions: in vivo, time 0.5-12 hrs
[10] = Acute toxicity in mouse assessed as effect on behaviour at 500 mg/kg, IG qd treated for 7 days; assay type: organism-based; conditions: in vivo, po, 168 h, time 7 day
[11] = Cytotoxicity against HEK293T cells assessed as cell viability at 30 uM by CCK8 assay relative to control; assay type: toxicity, cell-based, HEK-293T; conditions: human, read-out: Activity
[12] = Cmax in C57BL/6 mouse at 1 mg/kg, iv measured for 0.5 to […] htr by LC-MS/MS analysis; assay type: ADME, organism-based; conditions: in vivo, time 0.5-12 hrs
CCRF-CEM = experiment: cells; conditions: Homo sapiens
[13] = Tmax in C57BL/6 mouse at 10 mg/kg, po measured for 0.5 to 12 htr by LC-MS/MS analysis; assay type: ADME, organism-based; conditions: in vivo, time 0.5-12 hrs
Cytochrome P450 2C19 = Cytochrome P450 2C19 (Homo sapiens, UniProt P33261); experiment: Inhibition of CYP2C19 in human liver microsomes using S-mephenytoin as substrate preincubated with compound followed by substrate addition measured after 10 mins in presence of NADPH by LC-MS/MS analysis; assay type: ADME, Microsome
Chain of Cytochrome P450 2C19 (P33261 whole entry): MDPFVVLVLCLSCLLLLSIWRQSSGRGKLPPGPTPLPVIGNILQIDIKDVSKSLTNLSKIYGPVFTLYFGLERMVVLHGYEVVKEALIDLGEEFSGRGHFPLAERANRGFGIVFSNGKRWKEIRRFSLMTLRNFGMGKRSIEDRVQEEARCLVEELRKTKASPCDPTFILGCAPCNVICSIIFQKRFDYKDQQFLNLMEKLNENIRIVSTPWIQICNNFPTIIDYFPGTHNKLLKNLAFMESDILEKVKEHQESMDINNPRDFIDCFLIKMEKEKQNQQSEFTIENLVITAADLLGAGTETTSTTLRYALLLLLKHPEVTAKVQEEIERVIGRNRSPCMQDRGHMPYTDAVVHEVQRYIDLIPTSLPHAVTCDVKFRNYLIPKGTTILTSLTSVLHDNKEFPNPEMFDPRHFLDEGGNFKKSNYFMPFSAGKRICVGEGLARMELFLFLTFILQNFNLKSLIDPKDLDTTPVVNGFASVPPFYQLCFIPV

[14] = MRT (0 to t) in C57BL/6 mouse at 1 mg/kg, iv measured for 0.5 to 12 htr by LC-MS/MS analysis; assay type: ADME, organism-based; conditions: in vivo, time 0.5-12 hrs
[15] = molecular target: Serine/threonine-protein kinase PLK1 (Homo sapiens, UniProt P53350); experiment: Inhibition of human PLK1 assessed as residual activity at 10 uM by kinome selectivity profiling analysis relative to control
Chain of Serine/threonine-protein kinase PLK1 (P53350 whole entry): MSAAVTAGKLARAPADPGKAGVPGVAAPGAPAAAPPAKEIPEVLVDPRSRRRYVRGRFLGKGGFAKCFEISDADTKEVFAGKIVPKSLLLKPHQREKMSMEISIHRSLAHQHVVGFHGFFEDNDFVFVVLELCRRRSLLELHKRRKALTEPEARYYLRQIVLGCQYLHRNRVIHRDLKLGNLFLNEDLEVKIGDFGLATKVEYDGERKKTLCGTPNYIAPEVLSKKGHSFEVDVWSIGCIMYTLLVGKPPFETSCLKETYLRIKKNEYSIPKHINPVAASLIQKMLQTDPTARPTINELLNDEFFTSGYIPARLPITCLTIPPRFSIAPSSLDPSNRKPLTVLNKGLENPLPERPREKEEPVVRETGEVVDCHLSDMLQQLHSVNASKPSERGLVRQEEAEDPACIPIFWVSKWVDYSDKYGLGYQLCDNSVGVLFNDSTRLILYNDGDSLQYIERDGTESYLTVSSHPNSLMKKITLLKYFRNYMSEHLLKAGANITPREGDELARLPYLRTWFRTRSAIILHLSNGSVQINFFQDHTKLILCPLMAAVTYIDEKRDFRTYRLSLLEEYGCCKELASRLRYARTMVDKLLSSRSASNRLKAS

[16] = Metabolic stability in mouse liver microsomes assessed as intrinsic clearance in microsome measured per mg protein preincubated for 5 mins followed by NADPH addition by LC-MS/MS analysis; assay type: ADME; conditions: read-out: CLH
[17] = molecular target: cGMP-dependent protein kinase 2 (Homo sapiens) (UniProt Q13237); experiment: Inhibition of human PRKG2 assessed as residual activity at 10 uM by kinome selectivity profiling analysis relative to control
[18] = molecular target: Serine/threonine-protein kinase PLK2 (Homo sapiens, UniProt Q9NYY3); experiment: Inhibition of human PLK2 using ATF2 as substrate incubated for 40 mins in presence of [gamma-33P]ATP/Mg acetate by scintillation counting analysis
[19] = Tmax in C57BL/6 mouse at 1 mg/kg, iv measured for 0.5 to 12 htr by LC-MS/MS analysis; assay type: ADME, organism-based; conditions: in vivo, time 0.5-12 hrs
[20] = molecular target: Serine/threonine-protein kinase PLK4 (Homo sapiens) (UniProt O00444); experiment: Inhibition of human PLK4 assessed as residual activity at 10 uM by kinome selectivity profiling analysis
Chain of Serine/threonine-protein kinase PLK4 (Homo sapiens) (O00444 whole entry): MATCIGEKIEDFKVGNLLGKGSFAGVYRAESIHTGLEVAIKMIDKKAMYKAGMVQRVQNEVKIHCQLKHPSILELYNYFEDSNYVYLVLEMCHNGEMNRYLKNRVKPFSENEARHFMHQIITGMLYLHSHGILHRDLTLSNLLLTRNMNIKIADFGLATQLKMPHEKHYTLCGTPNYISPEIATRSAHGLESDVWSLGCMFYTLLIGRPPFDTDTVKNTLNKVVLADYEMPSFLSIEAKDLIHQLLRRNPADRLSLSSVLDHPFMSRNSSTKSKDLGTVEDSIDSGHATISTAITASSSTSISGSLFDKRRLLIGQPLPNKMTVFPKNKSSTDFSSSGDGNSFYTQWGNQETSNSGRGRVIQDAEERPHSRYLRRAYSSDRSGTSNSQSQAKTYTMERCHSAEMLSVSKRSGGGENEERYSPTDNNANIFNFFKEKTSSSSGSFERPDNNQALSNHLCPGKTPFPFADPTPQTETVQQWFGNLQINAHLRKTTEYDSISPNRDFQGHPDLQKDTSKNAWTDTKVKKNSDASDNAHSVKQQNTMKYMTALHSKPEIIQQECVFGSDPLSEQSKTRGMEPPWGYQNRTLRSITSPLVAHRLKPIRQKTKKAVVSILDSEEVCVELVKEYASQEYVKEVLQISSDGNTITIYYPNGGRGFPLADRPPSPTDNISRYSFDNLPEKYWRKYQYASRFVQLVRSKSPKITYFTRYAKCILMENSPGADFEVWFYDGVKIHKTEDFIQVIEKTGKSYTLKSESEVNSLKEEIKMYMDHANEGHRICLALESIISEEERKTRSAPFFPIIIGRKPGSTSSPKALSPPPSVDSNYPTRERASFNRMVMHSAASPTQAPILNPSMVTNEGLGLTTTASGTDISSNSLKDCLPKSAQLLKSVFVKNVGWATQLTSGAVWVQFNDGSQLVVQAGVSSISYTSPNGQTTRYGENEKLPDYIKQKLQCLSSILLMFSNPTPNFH

NCI-H460 = experiment: cells; conditions: Homo sapiens
[21] = AUC (0 to t) in C57BL/6 mouse at 10 mg/kg, po measured for 0.5 to […] htr by LC-MS/MS analysis; assay type: ADME, organism-based; conditions: in vivo, time 0.5-12 hrs
[22] = Acute toxicity in mouse assessed as damage in kidney at 500 mg/kg, IG qd treated for 7 days by H and E staining based analysis; assay type: organism-based; conditions: in vivo, po, 168 h, time 7 day
A549 = experiment: cells; conditions: Homo sapiens
[23] = molecular target: Voltage-gated inwardly rectifying potassium channel KCNH2 (Homo sapiens, UniProt Q12809); experiment: Inhibition of hERG transfected in CHO cells; assay type: toxicity, cell-based
HEK-293T = experiment: Cytotoxicity against HEK293T cells by CCK8 assay; assay type: toxicity, cell-based; conditions: human, dose 0.1-30 µM
[24] = Acute hematopoietic toxicity in mouse assessed as effect on biochemical indices at 500 mg/kg, IG qd treated for 7 days; assay type: organism-based; conditions: in vivo, po, 168 h, time 7 day
[25] = molecular target: Aurora kinase A (Homo sapiens) (UniProt O14965); experiment: Inhibition of human Aurora-A assessed as residual activity at 10 uM by kinome selectivity profiling analysis relative to control
Cytochrome P450 1A2 = Cytochrome P450 1A2 (Homo sapiens, UniProt P05177); experiment: Inhibition of CYP1A2 in human liver microsomes using phenacetin as substrate preincubated with compound followed by substrate addition measured after 10 mins in presence of NADPH by LC-MS/MS analysis; assay type: ADME, Microsome
[26] = Stability of compound in human hepatocytes; assay type: ADME, cell-based, Hepatocyte
[27] = Selectivity ratio of IC50 for inhibition of human PLK3 using ATF2 as substrate to IC50 for inhibition of human PLK1 using ATF2 as substrate
[28] = Effect on mitochondrial membrane integrity in HEK293T cells at 10 uM incubated for 24 hrs by JC-1 dye based analysis; assay type: toxicity, cell-based; conditions: human, hek-293t
[29] = Metabolic stability in human liver microsomes assessed as intrinsic clearance preincubated for 5 mins followed by NADPH addition by LC-MS/MS analysis; assay type: ADME, Microsome; conditions: read-out: CLH
[30] = C0 in C57BL/6 mouse at 1 mg/kg, iv measured for 0.5 to 12 htr by LC-MS/MS analysis; assay type: ADME, organism-based; conditions: in vivo, time 0.5-12 hrs
[31] = molecular target: Cyclin-dependent kinase 6 (Homo sapiens) (UniProt Q00534); experiment: Inhibition of human CDK6 assessed as residual activity at 10 uM by kinome selectivity profiling analysis relative to control

CC[C@@H]1C(=O)N(C)c2cnc(Nc3cc(N4CCN(C)CC4)cc(Cl)c3OCCCO)nc2N1C1CCCC1
Activity [1]: 73% | Activity [2]: 44% | pIC50 [3]: 5.40 | Activity [4]: 80% | Activity [5]: 11% | ratio [6]: > 601 | Activity [7]: Non-toxic | pIC50 (Cytochrome P450 2C8): < 5.00 | Activity [8]: 107% | Activity (Homo sapiens): 108% | half-life [9]: 72 min | Activity [10]: Non-toxic | viability at 30 µM [11]: 68% | Cmax [12]: 0.264 µg/mL | pIC50 (CCRF-CEM): 7.39 | Tmax [13]: 45 min | pIC50 (Cytochrome P450 2C19): 5.72 | MRT last [14]: 39.6 min | Activity [15]: -2% | microsomal CLint [16]: 210 µL/min/mg | Activity [17]: 110% | pIC50 [18]: < 5.00 | Tmax [19]: 4.98 min | inhibition [20]: inactive | pIC50 (NCI-H460): 7.92 | AUC(0-t) [21]: 0.82 µg·h/mL | Activity [22]: Non-toxic | pIC50 (A549): 7.49 | pIC50 [23]: 4.35 | Activity (HEK-293T): Dose-dependent-effect | Activity [24]: Non-toxic | Activity [25]: 110% | pIC50 (Cytochrome P450 1A2): < 5.00 | Stability [26]: Stable | ratio [27]: 197 | Activity [28]: Non-toxic | CLint scaled [29]: 5.14 L/h/kg | C0 [30]: 0.328 µg/mL | Activity [31]: 103%

From ChEMBL document CHEMBL6153147 (J Med Chem, 2025)
